What was measured:
Assay in all cases: viability relative to DMSO control (fraction); higher = less drug effect (more viable cells)
Conditions in all cases: 48 h
[1] = tested on: primary MCL patient cells (S041)
Procedure, shortened: (§1)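 Cells were incubated for 48 h at 37 °C and 5% CO2 in RPMI-1640 with penicillin/streptomycin, L-glutamine and human serum, at 4 × 10^4 cells per well in 384-well plates with compounds pre-plated at five concentrations, one well each. These were primary mononuclear tumour cells, fresh or cryopreserved, Ficoll-isolated from blood or bone marrow or obtained from processed lymph node. Viability values are CellTiter-Glo luminescence relative to the median of 16 inner DMSO wells.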

[2] = tested on: primary AML patient cells (S011)
Procedure, shortened: as §1

[3] = tested on: primary AML patient cells (S055)
Procedure, shortened: as §1

[4] = tested on: primary T-NHL patient cells (S058)
Procedure, shortened: as §1

[5] = tested on: primary B-PLL patient cells (S016)
Procedure, shortened: as §1

[6] = tested on: primary T-PLL patient cells (S008)
Procedure, shortened: as §1

[7] = tested on: primary AML patient cells (S009)
Procedure, shortened: as §1

[8] = tested on: primary FL patient cells (S087)
Procedure, shortened: as §1

[9] = tested on: primary AML patient cells (S060)
Procedure, shortened: as §1

[10] = tested on: primary AML patient cells (S081)
Procedure, shortened: as §1

[11] = tested on: primary MCL patient cells (S063)
Procedure, shortened: as §1

[12] = tested on: primary AML patient cells (S006)
Procedure, shortened: as §1

[13] = tested on: primary ALL patient cells (S088)
Procedure, shortened: as §1

[14] = tested on: primary DLBCL patient cells (S076)
Procedure, shortened: as §1

[15] = tested on: primary DLBCL patient cells (S049)
Procedure, shortened: as §1

[16] = tested on: primary DLBCL patient cells (S082)
Procedure, shortened: as §1

[17] = tested on: primary AML patient cells (S021)
Procedure, shortened: as §1

For `CC[C@H](Nc1ncnc2[nH]cnc12)c1nc2cccc(F)c2c(=O)n1-c1ccccc1` [Idelalisib], the viability ([1]; 0.0032 µM) was 0.949, the viability ([1]; 0.016 µM) was 0.908 and the viability ([1]; 0.08 µM) was 0.886. It also gave a viability ([1]; 0.4 µM) of 0.893, a viability ([1]; 2 µM) of 0.887 and a viability ([2]; 0.0032 µM) of 0.968. For the same compound, the viability ([2]; 0.016 µM) was 0.873, the viability ([2]; 0.08 µM) was 0.924 and the viability ([2]; 0.4 µM) was 0.88. It also gave a viability ([2]; 2 µM) of 0.829, a viability ([3]; 0.0032 µM) of 1 and a viability ([3]; 0.016 µM) of 0.961. It also gave a viability ([3]; 0.08 µM) of 0.909, a viability ([3]; 0.4 µM) of 0.972 and a viability ([3]; 2 µM) of 0.875. The viability ([4]; 0.0032 µM) was 0.988, the viability ([4]; 0.016 µM) was 0.916 and the viability ([4]; 0.08 µM) was 0.961. It also gave a viability ([4]; 0.4 µM) of 1.08, a viability ([4]; 2 µM) of 0.985 and a viability ([5]; 0.0032 µM) of 1.08. For the same compound, the viability ([5]; 0.016 µM) was 0.889, the viability ([5]; 0.08 µM) was 0.905 and the viability ([5]; 0.4 µM) was 0.794. It also gave a viability ([5]; 2 µM) of 0.751, a viability ([6]; 0.0032 µM) of 1 and a viability ([6]; 0.016 µM) of 0.97. For the same compound, the viability ([6]; 0.08 µM) was 1.03, the viability ([6]; 0.4 µM) was 0.99 and the viability ([6]; 2 µM) was 0.992. For the same compound, the viability ([7]; 0.0032 µM) was 0.985, the viability ([7]; 0.016 µM) was 1.02 and the viability ([7]; 0.08 µM) was 1.04. For the same compound, the viability ([7]; 0.4 µM) was 0.998, the viability ([7]; 2 µM) was 0.905 and the viability ([8]; 0.0032 µM) was 0.984. For the same compound, the viability ([8]; 0.016 µM) was 0.923, the viability ([8]; 0.08 µM) was 0.848 and the viability ([8]; 0.4 µM) was 0.78. The viability ([8]; 2 µM) was 0.793, the viability ([9]; 0.0032 µM) was 1.04 and the viability ([9]; 0.016 µM) was 1.02. The viability ([9]; 0.08 µM) was 1.03, the viability ([9]; 0.4 µM) was 1.08 and the viability ([9]; 2 µM) was 1.03. For the same compound, the viability ([10]; 0.0032 µM) was 1.07, the viability ([10]; 0.016 µM) was 1.04 and the viability ([10]; 0.08 µM) was 1.06. The viability ([10]; 0.4 µM) was 1.07, the viability ([10]; 2 µM) was 1.03 and the viability ([11]; 0.0032 µM) was 0.918. It also gave a viability ([11]; 0.016 µM) of 0.792, a viability ([11]; 0.08 µM) of 0.73 and a viability ([11]; 0.4 µM) of 0.693. The viability ([11]; 2 µM) was 0.595, the viability ([12]; 0.0032 µM) was 1.02 and the viability ([12]; 0.016 µM) was 0.97. It also gave a viability ([12]; 0.08 µM) of 0.943, a viability ([12]; 0.4 µM) of 0.885 and a viability ([12]; 2 µM) of 0.882. The viability ([13]; 0.0032 µM) was 1.02, the viability ([13]; 0.016 µM) was 0.948 and the viability ([13]; 0.08 µM) was 0.895. The viability ([13]; 0.4 µM) was 0.914, the viability ([13]; 2 µM) was 0.831 and the viability ([14]; 0.0032 µM) was 0.935. For the same compound, the viability ([14]; 0.016 µM) was 0.879, the viability ([14]; 0.08 µM) was 0.825 and the viability ([14]; 0.4 µM) was 0.832. It also gave a viability ([14]; 2 µM) of 0.735, a viability ([15]; 0.0032 µM) of 1.02 and a viability ([15]; 0.016 µM) of 1.02. For the same compound, the viability ([15]; 0.08 µM) was 0.968, the viability ([15]; 0.4 µM) was 1.02 and the viability ([15]; 2 µM) was 0.94. The viability ([16]; 0.0032 µM) was 1.05, the viability ([16]; 0.016 µM) was 0.893 and the viability ([16]; 0.08 µM) was 0.812. For the same compound, the viability ([16]; 0.4 µM) was 0.768, the viability ([16]; 2 µM) was 0.668 and the viability ([17]; 0.0032 µM) was 1.03. It also gave a viability ([17]; 0.016 µM) of 0.928, a viability ([17]; 0.08 µM) of 0.843 and a viability ([17]; 0.4 µM) of 0.827. For the same compound, the viability ([17]; 2 µM) was 0.741.

— the supplement of paper PMC10733146
